# Target: T1, human P2Y12 receptor (Homo sapiens, UniProt Q9H244)
# T1 construct: expressed in transfected cells; host or cells: Chinese Hamster Ovary (CHO) cells, membrane preparation
# Assay: Human P2Y12 recombinant cell membrane binding assay
# Conditions: competition against 33P 2MeS-ADP; membranes of CHO cells with recombinant human P2Y12 receptor; read-out: inhibition MeSADP binding P2Y12, IC 50
# Method: Human P2Y12 Recombinant Cell Membrane Binding Assay
# The ability of a test compound to bind to the P2Y12 receptor was evaluated in a recombinant cell membrane binding assay. In this competitive binding assay, the test compound competed against a radiolabeled agonist for binding to the P2Y12 receptor, expressed on the cell membrane. Inhibition of binding of the labeled material was measured and correlated to the amount and potency of the test compound. This binding assay is a modification of the procedure described by Takasaki, J. et. al, Mol. Pharmacol., 2001, Vol. 60, pg. 432.
# As source of P2Y12, a membrane preparation was prepared from Chinese Hamster Ovary (CHO) cells with recombinant expression of the human P2Y12 receptor according to standard procedures.
# To a 96-well microtiterplate the following were added: a) 24 μl of assay buffer (10 mM HEPES, 138 mM NaCl, […] KCl, 12 mM NaHCO3, 1 mM EDTA-Na, 0.1% BSA, pH 7.4) b) 1 μL compound in DMSO c) 50 μL P2Y12 CHO membrane (20 μg/ml) and after 15 min at RT d) 25 μL of 1.61 nM ^33P 2MeS— ADP (Perkin Elmer NEN custom synthesis, specific activity ˜2100 Ci/mmol) made in assay buffer.
# After 20 min incubation at RT samples were transferred to 96-well microtiter filterplates (Millipore HTS GF/B), pre-wetted for 20 min with 300 μL of stop buffer (10 mM HEPES, 138 mM NaCl pH 7.4) and then filtered through completely with a Millipore plate vacuum. Next, wells were washed four times with 400 μl/well of stop buffer on a plate vacuum. The plate was disassembled and allowed to air dry overnight with the filter side up over night. The filter plates were snapped into adapter plates and 0.1 mL of Microscint 20 Scintillation Fluid (Perkin Elmer #6013621) was added to each well. The top of the filterplate was sealed with plastic plate covers. The sealed filterplate were incubated 2 hours at room temperature. A Microbeta Scintillation Counter was used to measure counts. The binding of compound is expressed as a % inhibition of specific binding, defined by subtraction of the background with 1 mM ADP. Compounds were diluted as 10 mM DMSO stocks and tested in a four-point, five-fold dilution series run in triplicate beginning at 10 μM, final concentration. Data were analyzed using a four-parameter curve fit with a fixed minimum and maximum experimentally defined as the average positive and negative controls on each plate.
# T1 sequence (Q9H244 whole entry): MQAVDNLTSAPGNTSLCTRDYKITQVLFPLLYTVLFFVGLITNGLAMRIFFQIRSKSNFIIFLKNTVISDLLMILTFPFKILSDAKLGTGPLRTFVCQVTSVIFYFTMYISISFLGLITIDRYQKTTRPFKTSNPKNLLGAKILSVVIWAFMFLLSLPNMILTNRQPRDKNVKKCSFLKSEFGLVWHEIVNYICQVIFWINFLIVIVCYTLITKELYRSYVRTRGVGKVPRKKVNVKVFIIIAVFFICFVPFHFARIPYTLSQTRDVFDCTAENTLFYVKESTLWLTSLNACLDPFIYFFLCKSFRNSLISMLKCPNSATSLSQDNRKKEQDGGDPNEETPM
row,SMILES,IC50
1,"Cc1[nH]c(-c2ccccc2)cc1C(=O)C(=O)N1CCC(C(=O)c2ccc(Br)cc2)CC1 [Example 51, 1-[4-(4-Bromo-benzoyl)-piperidin-1-yl]-2-(2-methyl-5-phenyl-1H-pyrrol-3-yl)-ethane-1,2-dione]",710 nM
2,"Cc1[nH]c(-c2ccccc2)cc1C(=O)C(=O)N1CCC(C(=O)c2cccc(Cl)c2)CC1 [Example 52, 1-[4-(3-Chloro-benzoyl)-piperidin-1-yl]-2-(2-methyl-5-phenyl-1H-pyrrol-3-yl)-ethane-1,2-dione]",520 nM
3,"Cc1[nH]c(-c2ccccc2)c(/C=C/C(=O)O)c1C(=O)C(=O)N1CCN(c2cccc(C(F)(F)F)c2)CC1 [Example 71, (E)-3-(5-Methyl-4-{2-oxo-2-[4-(3-trifluoromethyl-phenyl)-piperazin-1-yl]-acetyl}-2-phenyl-1H-pyrrol-3-yl)-acrylic acid]",30 nM

# The remaining lines, values ahead:
row,IC50,SMILES
1,500 nM,"Cc1[nH]c(-c2ccccc2)cc1C(=O)C(=O)N1CCN(c2cccc(C(F)(F)F)c2)CC1 [Example 1, 1-(2-Methyl-5-phenyl-1H-pyrrol-3-yl)-2-[4-(3-trifluoromethyl-phenyl)-piperazin-1-yl]-ethane-1,2-dione]"
2,700 nM,"Cc1[nH]c(-c2ccccc2)cc1C(=O)C(=O)N1CCN(c2ccc(Cl)c(C(F)(F)F)c2)CC1 [Example 10, 1-[4-(4-Chloro-3-trifluoromethyl-phenyl)-piperazin-1-yl]-2-(2-methyl-5-phenyl-1H-pyrrol-3-yl)-ethane-1,2-dione]"
3,170 nM,"CCOC(=O)c1cccc(N2CCN(C(=O)C(=O)c3cc(-c4ccccc4)[nH]c3C)CC2)c1 [Example 33, 3-{4-[2-(2-Methyl-5-phenyl-1H-pyrrol-3-yl)-2-oxo-acetyl]-piperazin-1-yl}-benzoic acid ethyl ester]"
